Among the data in patent US10696693B2, “Fused imidazole derivatives as TGF-beta inhibitors” (Rigel Pharmaceuticals, Inc., priority 2014, dated 2020) are IC50 values, retold here.

One experiment has as its system TGF-β. The experiment in a line: AlphaScreen SureFire p-SMAD3 (Ser423/425) assay, TGF-β-stimulated cells. The experiment is classed as cell-based. As to conditions: Mus musculus. The method in brief:
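The p-SMAD-3 (Ser423/425) SureFire assay measured phosphorylation of endogenous SMAD-3 in cell lysates. Cells were plated overnight in collagen-coated plates, exposed to three-fold serially diluted compounds for about 10 minutes, then stimulated with TGFβ. Lysates (5 μL) received acceptor bead mix for 2 hours, then donor beads for 1½ hours before AlphaScreen reading.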
A general note: Bead proximity is the source of the signal in Alpha formats.

A further experiment has as its system GDF8. Description: AlphaScreen SureFire p-SMAD3 (Ser423/425) assay, GDF8-stimulated cells. The experiment is classed as cell-based. The following applies: Mus musculus. The method in brief:
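Lysate (5 μL) went into 384-well shallow plates with 5 μL of Reaction Buffer, Activation Buffer and AlphaScreen Acceptor bead mix. Plates were sealed, kept dark and shaken for 2 hours at room temperature. Donor beads in dilution buffer (2 μL) were added for another 1½ hours, and p-SMAD3 signal was read on a Synergy-4 or Enspire reader.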

The mark [1] stands for this setting: p-SMAD3 (Ser423/425) AlphaScreen in cell lysate, MPC-11, TGF-β stimulation, read-out: TGF-β: inhibition of TGF-β signaling, TGF-β pSMAD (MPC-11).
Setting [2] is: MPC-11, p-SMAD3 (Ser423/425) AlphaScreen in cell lysate, MPC11, GDF8 stimulation, read-out: GDF8: inhibition of GDF8 signaling, GDF pSMAD (MPC11).
[3] abbreviates: MPC-11, read-out: TGF-β: inhibition of TGF-β signaling, TGF-β pSMAD (MPC-11), p-SMAD3 (Ser423/425) AlphaScreen in cell lysate, TGF-β stimulation.
Setting [4] is: MPC-11, read-out: GDF8: inhibition of GDF8 signaling, GDF pSMAD (MPC11), p-SMAD3 (Ser423/425) AlphaScreen in cell lysate, GDF8 stimulation.

SMILES strings stand for the structures. Where two headings read alike, the source gives them in different places. Where only a bound is given, the exact number is not on record here.

In the case of `Cc1c(F)ccc(-c2nc3n(c2-c2ccc4nccn4c2)CCC3)c1C` [Compound 74, 6-(2-(4-fluoro-2,3-dimethylphenyl)-6,7-dihydro-5H-pyrrolo[1,2-a]imidazol-3-yl)imidazo[1,2-a]pyridine], the IC50 is greater than 1 µM in the experiment on TGF-β (setting [1]) and 0.1 to 1 µM in the experiment on GDF8 (setting [2]).
`Fc1ccc(Cl)cc1-c1nc2n(c1-c1ccc3ncc(-n4ccnc4)nc3c1)CCC2` [Compound 360, 7-(2-(5-chloro-2-fluorophenyl)-6,7-dihydro-5H-pyrrolo[1,2-a]imidazol-3-yl)-2-(1H-imidazol-1-yl)quinoxaline]: the IC50 with TGF-β (setting [3]) and in the experiment on GDF8 (setting [4]) was less than 0.05 µM each time.
Consider `Cc1cc(-c2nc3n(c2-c2ccc4ncccc4c2)CCC3)cc(Cl)c1F` [Compound 275, 6-(2-(3-chloro-4-fluoro-5-methylpheny)-6,7-dihydro-5H-pyrrolo[1,2-a]imidazol-3-yl)quinoline], for which the IC50 in the experiment with TGF-β (setting [1]) and in the experiment on GDF8 (setting [2]) was greater than 1 µM each time.
In the case of `Cc1ccc(F)c(-c2nc3n(c2-c2ccc4ncnn4c2)CCC3)c1` [Compound 96, 6-(2-(2-fluoro-5-methylphenyl)-6,7-dihydro-5H-pyrrolo[1,2-a]imidazol-3-yl)-[1,2,4]triazolo[1,5-a]pyridine], the IC50 in the experiment on TGF-β (setting [1]) and in the experiment with GDF8 (setting [2]) was less than 0.05 µM throughout.
For `Fc1cc(F)c(-c2nc3n(c2-c2cc4cnccc4s2)CCN3)cc1F` [Compound 116, 2-(6-(2,4,5-trifluorophenyl)-2,3-dihydro-1H-imidazo[1,2-a]imidazol-5-yl)thieno[3,2-c]pyridine], the IC50 in the experiment with TGF-β (setting [1]) and in the experiment on GDF8 (setting [2]) was less than 0.05 µM in each case.
Turning to `Cc1cc(F)ccc1-c1nc2n(c1-c1ccc3[nH]ncc3c1)CCC2` [Compound 292, 5-(2-(4-fluoro-2-methylphenyl)-6,7-dihydro-5H-pyrrolo[1,2-a]imidazol-3-yl)-1H-indazole], the IC50 in the experiment on TGF-β (setting [3]) and with GDF8 (setting [4]) was greater than 1 µM in each case.
Turning to `Fc1ccccc1-c1nc2n(c1-c1ccc3nccnc3c1)CCC2` [Compound 200, 6-(2-(2-fluorophenyl)-6,7-dihydro-5H-pyrrolo[1,2-a]imidazol-3-yl)quinoxaline], the IC50 in the experiment on TGF-β (setting [1]) was greater than 1 µM; in the experiment with GDF8 (setting [2]), 0.1 to 1 µM.
For `CC(C)c1nnc2ccc(-c3c(-c4cc(F)cc(F)c4F)nc4n3CCC4)cn12` [Compound 22, 3-isopropyl-6-(2-(2,3,5-trifluorophenyl)-6,7-dihydro-5H-pyrrolo[1,2-a]imidazol-3-yl)-[1,2,4]triazolo[4,3-a]pyridine] the same measures were greater than 1 µM and greater than 1 µM.
In the same order, the values of `Fc1ccc(-c2nc3occn3c2-c2ccc3ncccc3c2)cc1` [Compound 146, 5-(quinolin-6-yl)-6-(4-fluorophenyl)imidazo[2,1-b]oxazole] are 0.1 to 1 µM and 0.1 to 1 µM.
For the compound `N#Cc1cnc2ccc(-c3c(-c4ccc(F)c(Cl)c4)nc4n3CCC4)cn12` [Compound 61, 6-(2-(3-chloro-4-fluorophenyl)-6,7-dihydro-5H-pyrrolo[1,2-a]imidazol-3-yl)imidazo[1,2-a]pyridine-3-carbonitrile], the IC50 in the experiment on TGF-β (setting [1]) and with GDF8 (setting [2]) was 0.1 to 1 µM each time.
On to `Cc1cccc(-c2nc3occn3c2-c2ccc3ncsc3c2)c1` [Compound 141, 5-(benzo[d]thiazo-6-yl)-6-(m-tolyl)imidazo[2,1-b]oxazole], for which the IC50 in the experiment on TGF-β (setting [1]) and in the experiment with GDF8 (setting [2]) was less than 0.05 µM in each case.
With `O=C(O)C1CCC2(CC1)Cc1nc(-c3ccc(F)cc3)c(-c3ccc4ncnn4c3)n1C2` (centres unmarked) [Compound 76, 3′-([1,2,4]triazolo[1,5-a]pyridin-6-yl)-2′-(4-fluorophenyl)-5′H,7′H-spiro[cyclohexane-1,6′-pyrrolo[1,2-a]imidazole]-4-carboxylic acid], the IC50 in the experiment on TGF-β (setting [3]) and with GDF8 (setting [4]) was greater than 1 µM throughout.
`Cc1cc(-c2nc3n(c2-c2ccc4[nH]ncc4c2)CCC3)cc(Cl)c1F` [Compound 272, 5-(2-(3-chloro-4-fluoro-5-methylphenyl)-6,7-dihydro-5H-pyrrolo[1,2-a]imidazol-3-yl)-1H-indazole]: the IC50 in the experiment on TGF-β (setting [1]) and in the experiment on GDF8 (setting [2]) was greater than 1 µM throughout.
For `Cc1cc(-c2nc3n(c2-c2ccc4ncnn4c2)CCC3)cc(C)c1F` [Compound 42, 6-(2-(4-fluoro-3,5-dimethylphenyl)-6,7-dihydro-5H-pyrrolo[1,2-a]imidazol-3-yl)-[1,2,4]triazolo[1,5-a]pyridine], the IC50 with TGF-β (setting [1]) and with GDF8 (setting [2]) was greater than 1 µM in each case.
On to `NC(=O)c1cnc2ccc(-c3c(-c4ccc(F)c(Cl)c4)nc4n3CCC4)cn12` [Compound 51, 6-(2-(3-chloro-4-fluorophenyl)-6,7-dihydro-5H-pyrrolo[1,2-c]imidazol-3-yl)imidazo[1,2-c]pyridine-3-carboxamide], for which the IC50 is 0.05 to 0.1 µM in the experiment on TGF-β (setting [1]) and less than 0.05 µM in the experiment on GDF8 (setting [2]).
In the case of `Fc1ccc(-c2nc3n(c2-c2ccc4[nH]ncc4c2)CCC3)c(F)c1F` [Compound 225, 5-(2-(2,3,4-trifluorophenyl)-6,7-dihydro-5H-pyrrolo[1,2-a]imidazol-3-yl)-1H-indazole], the IC50 in the experiment with TGF-β (setting [3]) and in the experiment with GDF8 (setting [4]) was 0.1 to 1 µM in each case.
